Results on 4 molecules are retold here after US20040220131A1, “Method for treatment of cancerous angiogenic disorders” (The University of British Columbia, priority 2003, published 2004).

Series [1] concerns HUVECS. The series can be described thus: HUVEC cell viability (mts, absorbance 490 and 595 nm) after antisense with or without drug. It counts as cell-based, human. As for the experimental part:
HUVECS were grown for 2 days in wells after seeding at 1200 per well. Antisense oligonucleotide of Seq. ID No. 5 (4 μg/ml with lipofectin) was added in serum free medium and incubated with the cells for 4 hours. Then 100 μl of serum was added and incubation was continued overnight. The next day, 150 μl of drug solution in serum medium was added. After two days, 20 μl of mts solution was added and left for approximately 3 hours. Cell viability was determined as the difference between absorption at 490 and 595 nm.

In series [2] the test system is HUVECS. To be noted: by the induction of apoptosis; cited from earlier work.
[3] abbreviates: Table 2, Drug alone (100 nM camptothecin).
The mark [4] stands for this setting: Table 3, Drug alone (200 nM doxorubicin).
Where [5] appears, read: Table 1, Drug alone (100 nM paclitaxel).
The mark [6] stands for this setting: Table 1 (paclitaxel series), AS 50 nM, no drug.
[7] abbreviates: Table 1 (paclitaxel series), AS 100 nM, no drug.
Where [8] appears, read: Table 1 (paclitaxel series), AS 200 nM, no drug.
Where [9] appears, read: Table 1, Drug (100 nM paclitaxel) + AS 50 nM.
Setting [10] is: Table 1, Drug (100 nM paclitaxel) + AS 100 nM.
The mark [11] stands for this setting: Table 1, Drug (100 nM paclitaxel) + AS 200 nM.
The mark [12] stands for this setting: Table 2 (camptothecin series), AS 50 nM, no drug.
Setting [13] is: Table 2 (camptothecin series), AS 100 nM, no drug.
The mark [14] stands for this setting: Table 2 (camptothecin series), AS 200 nM, no drug.
[15] abbreviates: Table 2, Drug (100 nM camptothecin) + AS 50 nM.
The mark [16] stands for this setting: Table 2, Drug (100 nM camptothecin) + AS 100 nM.
Where [17] appears, read: Table 2, Drug (100 nM camptothecin) + AS 200 nM.
Where [18] appears, read: Table 3 (doxorubicin series), AS 50 nM, no drug.
[19] abbreviates: Table 3 (doxorubicin series), AS 100 nM, no drug.
Setting [20] is: Table 3 (doxorubicin series), AS 200 nM, no drug.
The mark [21] stands for this setting: Table 3, Drug (200 nM doxorubicin) + AS 50 nM.
[22] abbreviates: Table 3, Drug (200 nM doxorubicin) + AS 100 nM.
[23] abbreviates: Table 3, Drug (200 nM doxorubicin) + AS 200 nM.

With `CC[C@@]1(O)C(=O)OCc2c1cc1n(c2=O)Cc2cc3ccccc3nc2-1` [camptothecin, reference compound], in the series with HUVECS [1] (setting [3]), the “absorbance at 490 nm” value came out at 0.55 and the “absorbance at 595 nm” value stood at 0.07. Also, the “concentration range that inhibits Huvecs” value in the series with HUVECS [2] is “low nanomolar range”.

As to `COc1cccc2c1C(=O)c1c(O)c3c(c(O)c1C2=O)C[C@@](O)(C(=O)CO)C[C@@H]3O[C@H]1C[C@H](N)[C@H](O)[C@H](C)O1` [doxorubicin, reference compound], in the series on HUVECS [1] (setting [4]), the “absorbance at 490 nm” value came out at 0.74 and the “absorbance at 595 nm” value came out at 0.08. For the same molecule, the “concentration range that inhibits Huvecs” value in the series on HUVECS [2] is “low nanomolar range”.

As to `CC(=O)O[C@H]1C(=O)[C@@]2(C)[C@H]([C@H](OC(=O)c3ccccc3)[C@]3(O)C[C@H](OC(=O)[C@H](O)[C@@H](NC(=O)c4ccccc4)c4ccccc4)C(C)=C1C3(C)C)[C@]1(OC(C)=O)CO[C@@H]1C[C@@H]2O` [paclitaxel, reference compound], in the series with HUVECS [1] (setting [5]), the “absorbance at 490 nm” value was found to be 0.53 and the “absorbance at 595 nm” value is recorded as 0.12. Moreover, the “concentration range that inhibits Huvecs” value in the series on HUVECS [2] is reported as “low nanomolar range”.

With “AS: Antisense oligonucleotide of Seq. ID No. 5, reduces the effective amount of clusterin (antisense CAGCAGCAGAGTCTTCATCAT; listed as DNA, chemistry not given here)”, the “cell viability, response to antisense in the presence of drug versus absence” value with HUVECS [1] (FIG. 1, in the presence of 100 nM paclitaxel) is recorded as “greater”; in the series on HUVECS [1] (FIG. 2, in the presence of 100 nM camptothecin), “greater”; in the series with HUVECS [1] (FIG. 3, in the presence of 200 nM doxorubicin), “greater”. Moreover, the “cell viability, response to antisense concentration” value in the series with HUVECS [1] (FIG. 1, paclitaxel series) is given as “dose dependent response”; in the series on HUVECS [1] (FIG. 2, camptothecin series), “dose dependent response”; in the series on HUVECS [1] (FIG. 3, doxorubicin series), “dose dependent response”. Further, the “absorbance at 490 nm” value in the series with HUVECS [1] (setting [6]) turned out to be 0.66; in the series with HUVECS [1] (setting [7]), 0.40; in the series on HUVECS [1] (setting [8]), 0.28; in the series with HUVECS [1] (setting [9]) it was 0.50; in the series with HUVECS [1] (setting [10]), 0.24; with HUVECS [1] (setting [11]), 0.17. Moreover, the “absorbance at 490 nm” value with HUVECS [1] (setting [12]) is on record as 0.66; with HUVECS [1] (setting [13]) it was 0.39; with HUVECS [1] (setting [14]), 0.21; in the series on HUVECS [1] (setting [15]), 0.53; in the series with HUVECS [1] (setting [16]), 0.31; with HUVECS [1] (setting [17]) it was 0.15. The “absorbance at 490 nm” value turned out to be 0.66 in the series on HUVECS [1] (setting [18]); 0.35 in the series with HUVECS [1] (setting [19]); 0.22 with HUVECS [1] (setting [20]); 0.66 with HUVECS [1] (setting [21]); 0.32 in the series on HUVECS [1] (setting [22]); 0.18 with HUVECS [1] (setting [23]). For the same molecule, the “absorbance at 595 nm” value is listed as 0.04 in the series with HUVECS [1] (setting [6]); 0.09 with HUVECS [1] (setting [7]); 0.07 with HUVECS [1] (setting [8]); 0.09 with HUVECS [1] (setting [9]); 0.04 in the series on HUVECS [1] (setting [10]); 0.05 in the series with HUVECS [1] (setting [11]). The “absorbance at 595 nm” value in the series with HUVECS [1] (setting [12]) is 0.10; in the series with HUVECS [1] (setting [13]), 0.06; in the series on HUVECS [1] (setting [14]), 0.04; with HUVECS [1] (setting [15]), 0.07; in the series on HUVECS [1] (setting [16]) it was 0.08; in the series on HUVECS [1] (setting [17]), 0.05. Also, the “absorbance at 595 nm” value was determined as 0.07 in the series on HUVECS [1] (setting [18]); 0.05 with HUVECS [1] (setting [19]); 0.04 in the series with HUVECS [1] (setting [20]); 0.06 in the series on HUVECS [1] (setting [21]); 0.04 in the series on HUVECS [1] (setting [22]); 0.02 with HUVECS [1] (setting [23]).
